These results are taken from patent publication US20070032410A1, “COMPOSITIONS AND METHODS FOR THE TREATMENT OF PSYCHIATRIC DISORDERS” (Atossa Healthcare, Inc., priority 2000, published 2007).

The data set concerns tracheal/bronchial epithelial cell membrane inserts (EpiAirway). Briefly: Permeation of carbetocin formulations across tracheal/bronchial epithelial cell membrane inserts (EIA of basolateral media). Format: in vitro ADME. The conditions noted are these: human, 1 h. The procedure:
Permeation studies on varying formulations of carbetocin were completed using tracheal/bronchial epithelial cell membrane inserts. Samples were evaluated for appearance, color, clarity, pH, osmolality, cell viability using an MTT assay, cytotoxicity using an LDH assay, and transepithelial resistance and permeation.
Tracheal/bronchial epithelial cell membrane inserts (EpiAirway, MatTek Corp., Ashland, Mass.) were received the day before the experiment. Each tissue insert was placed in a well of a 6 well plate which contained 0.9 ml of serum free media and cultured at 37° C. for 24 hours to allow the tissues to equilibrate. The day of the experiment, transepithelial electrical resistance measurements were taken for each insert using a Tissue Resistance Measurement Chamber connected to an Epithelial Voltohmeter (World Precision Instruments, Inc., Sarasota, Fla.).
After the background transepithelial electrical resistance was determined, 1 ml of media was placed in the bottom of each well in a six well plate. The inserts were inverted and drained and placed into new wells with fresh media. For samples 1-12, 100 μl of the formulation to be tested was then added to an insert. For samples 13-92, 25 μl of the formulation was added to each insert. The inserts were placed in a shaking incubator at 100 rpm and 37° C. for one hour. The tissue inserts were then removed from the incubator. […]

*1 amine or outer side, *2 acyl side, *3 side chain or, on linkers, in order; H or OH if unused. Where a SMILES comes first, the peptide text is derived from it. Bridges are numbered along the chain shown (N, C = ends). X1 = O=C(CCC[*:2])[*:1]

Take `CC[C@H](C)[C@@H]1NC(=O)[C@H](Cc2ccc(OC)cc2)NC(=O)CCCSC[C@@H](C(=O)N2CCC[C@H]2C(=O)N[C@@H](CC(C)C)C(=O)NCC(N)=O)NC(=O)[C@H](CC(N)=O)NC(=O)[C@H](CCC(N)=O)NC1=O` [carbetocin, 1-butanoic acid-2-(O-methyl-L-tyrosine)-1-carbaoxytocin] (Y(Me)IQNCPLG-NH2; linker N-5 via X1): the permeation entry is on record as “less than 1.0%”.
